According to publication PMC11583597, “Brain uptake pharmacokinetics of albiglutide, dulaglutide, tirzepatide, and DA5-CH in the search for new treatments of Alzheimer’s and Parkinson’s diseases” (Tissue Barriers, 2023):
Like-named read-outs stand apart in the source and are kept apart here. Marks after values point to notes of the source that are not given here.

Key:
[1] = mouse, in vivo, iv; cited from earlier work
Excerpt: The unidirectional blood-to-brain influx rate (Ki) calculated from Figure 2c for all four IRAs tested is graphed with previously calculated Ki’s for other IRAs[50] in Figure 3 by rank.

[2] = mouse, in vivo; cited from earlier work
Experimental: The rank order of IRAs showing significant brain uptake 1 h after iv injection with respect to AUCs is similar, but not identical to the rank order of their Ki’s (see Figures 5b and 3b). Less similar is the rank order of IRAs for uptake into brain parenchyma defined as the percent reaching the brain that was in its parenchyma vs. its capillaries. The rank order of parenchymal uptake was specifically DA4-JC (89.7%) = albiglutide (BAF) (89.4%) > DA3-CH (86%) > exenatide (84.2%) > Peptide 17 (73.2%) > lixisenatide (66.8%) > dulaglutide (BAF) (61.8%) > DA5-CH (57.6%) > Peptide 21 (43.6%) > liraglu ...

[3] = mouse, in vivo, iv; cited from earlier work; remark: listed apart in the source
[4] = Octanol/buffer partition coefficient (lipid solubility); format: physicochemical
Experimental: We measured the lipid solubility of the IRAs, using octanol and PB. Briefly, 1 × 10^5 counts per minute (cpm) of each ^125I/^14C-IRA were added to triplicate tubes containing equal volumes PB and octanol (Sigma-Aldrich). This solution was vigorously mixed for 1 min and centrifuged at 5500 ×g for 10 min to separate the two phases. Aliquots of 100 μl were taken in duplicate from each phase, and total radioactivity was counted in a gamma counter (Wizard2, Perkin-Elmer) or beta counter (TriCarb 3110TR, Perkin-Elmer). The ratio of the cpm in the octanol phase to the cpm in the buffer phase equates to the mean partition coefficient (Pcoeff) and indicates lipophilicity. The log value for the coefficient can be either greater than unity, indicative of a lipophilic compound, or less than unity, indicative of a hydrophilic compound.

[5] = In vivo stability of 125I/14C-IRAs in blood/serum (acid precipitation); design: species or system male CD-1 mice; details: mouse, iv
Experimental: (§1) We measured the stability of the radiolabeled IRAs in brain and blood. Following anesthetization, arterial blood and whole brain were taken at two time points (10 or 60 min) after iv injection of 3 × 10^5 cpm-1×10^6 cpm of ^125I/^14C-IRA in 0.2 ml of BSA/LR. The blood samples were allowed to clot, centrifuged at 3200 ×g for 10 min, and 50 μl of the separated serum was added to 250 μl of BSA-LR. Samples were combined with equal volume 30% TCA (300 μl), mixed, and then centrifuged for 10 min at 5400 ×g. Brains were homogenized in 800 μl of BSA-LR with a bead beater for 30 sec at 4800 rpm twice. Following centrifugation at 5400 ×g for 15 min, a portion of the resulting supernatant was added to an equal volume of 30% TCA, mixed, and then centrifuged at 5400 ×g for 10 min. The radioactivity in the resulting supernatant and pellet (Sup and Pel fractions) for serum and brain was calculated separately, and the percent of radioactivity in the precipitate was calculated using the following equation:(1) %AcidPrecip=100×Pel/Sup+Pel
(§2) To correct for degradation that might have occurred during the processing, ^125I/^14C-IRA was added to non-radioactive arterial whole blood or to whole brain and processed as above. The biological samples were corrected for degradation during processing by dividing their values by those for processing control (Pcon) values and multiplying by 100. This can sometimes result in a value greater than 100%.
(§3) Immediately after counting the radioactivity, the blood and brains from the 10 min and 6 h time points were processed as described in Section 2.5 for in vivo stability. For further comparison, data from the 1 h time point were taken from the original pharmacokinetic uptake study. The ^125I-IRA brain % acid precipitation (%AP) was divided by the ^125I-IRA serum %AP at each time point to calculate the %AP B/S ratio. This value was multiplied by the B/S ratio for each ^125I-IRA to correct for degradation over the 10 min, 1 h, or 6 h time periods. Corrected AP B/S ratios were then corrected for vascular space by subtracting the ^99mTc-Alb B/S ratio within each mouse for the 10 min and 6 h time points (AP corrected delta B/S ratio). For the 1 h time point, the average ^99mTc-Alb B/S ratio (10.03 μl/g) at 10 min across all ^125I-IRAs was used for correction. The AP corrected delta B/S ratio for each ^125I-IRA was then multiplied by the %Inj/ml within each mouse to calculate the AP corrected delta %Inj/g.

[6] = mouse, in vivo, iv
Experimental: The capillary depletion method was used to separate cerebral capillaries from brain parenchyma. Anesthetized mice received an iv injection of 3 × 10^5-1×10^6 cpm of an ^125I-IRA with 5 × 10^5 cpm ^99mTc-Alb BSA-LR and 15 min later, blood and brains were collected. Whole brains were homogenized with physiological buffer (10 mM HEPES, 141 mM NaCl, 4 mM KCl, 2.8 mM CaCl2, 1 mM MgSO4, 1 mM NaH2PO4, and 10 mM D-glucose adjusted to pH 7.4) using two different sized glass dounce homogenizers, mixed with 26% dextran (Sigma-Aldrich), and centrifuged at 5400 ×g for 15 min at 4°C.[69] The pellet, containing the capillaries, and the supernatant, containing the brain parenchymal/interstitial fluid space, were carefully separated. The ratio of ^125I-IRA radioactivity in the supernatant (parenchyma) was corrected for vascular space by subtracting the B/S ratio of ^99mTc-Alb in the supernatant. The corrected parenchyma/serum and capillary/serum ratios (μl/g) were calculated as (cpm/g tissue)/(cpm/μl) serum.

[7] = In vivo stability of 125I/14C-IRAs in brain (acid precipitation); design: species or system male CD-1 mice; details: mouse, iv
Experimental: as §1, §2, §3

[8] = Brain influx and initial volume of distribution (multiple-time regression analysis); design: species or system male CD-1 mice; details: mouse, in vivo; for Blood to Brain Unidirectional Influx Rate (Ki): iv
Experimental: (§4) Following anesthetization, the jugular vein and right carotid artery were exposed. Mice were given a jugular vein injection of 0.2 ml BSA-LR containing 3 × 10^5 cpm-1×10^6 cpm of an ^125I/^14C-labeled IRA and 5 × 10^5 cpm of ^99mTc-Alb. Blood samples were collected from the carotid artery at various time points from 1 to 60 min after iv injection (see Figure 1). Mice were then decapitated, and their brains were removed and weighed. After clotting, the arterial blood was centrifuged at 3200 ×g for 10 min. Levels of radioactivity in serum (50 μl) and brain were measured in a gamma counter for ^125I and ^99mTc for 3 min. After ^99mTc decay, ^14C-DA5-CH samples were solubilized with Solvable (Sigma), transferred to scintillation vials containing Ecoscint (National Diagnostics) and ^14C was measured in a beta counter. Sample injection checks were taken throughout the course of the study to calculate the mean injected cpm/mouse. To determine the rate of ^125I/^14C-IRA clearance from the serum, the results were expressed as the percentage of an injected dose in each ml of serum (%Inj/ml), which was calculated by dividing the cpm in a ml of serum (cpm/ml serum) by the cpm injected into the mouse (cpm/Inj):
To calculate the blood-to-brain unidirectional influx constant (Ki), multiple-time regression analysis was used as first described by Patlak, Blasberg, and Fenstermacher.[67],[68] The brain/serum (B/S) ratios (μl/g) of the ^125I/^14C-IRA in each gram of brain were calculated from the data in Section 2.6 and plotted against their respective exposure times as previously applied by Rhea et al. 2018.[69] Exposure time differs from clock time in that exposure time corrects for clearance of the ^125I/^14C-IRA from blood and thus, better represents the amount of ^125I/^14C-IRA available for BBB transport at any given time. Delta B/S ratios were calculated by subtracting the vascular space as measured by the B/S ratio for ^99mTc-Alb from the B/S ratio for the respective ^125I/^14C-IRA. Thus, delta B/S ratios represent material that has been taken up by or has crossed the BBB. The slope of the linear portion of the relation between delta B/S ratios and exposure time defines Ki (μl/g-min) and is reported with its error term. This represents Model 1 for DA5-CH. The y-intercept of this linear portion of the relation defines Vi, (μl/g), the initial volume of distribution in brain at t = 0, which is the functional volume per unit brain mass of a soluble compound that exchanges rapidly and reversibly with plasma.[68] Vi consists of the vascular space (Vv) and any residual space after accounting for Vv and usually represents vascular binding (Vr). Since we correct each ^125I/^14C-IRA delta B/S for vascular space, our y-intercept values likely represent vascular binding. For DA5-CH, there appeared to be rapid, early transport that would indicate a Vr equal to 0. Therefore, using Vr equal to 0, we calculated an estimate of this new Ki and refer to it throughout the manuscript as Model 2.

[9] = design: species or system male CD-1 mice; details: mouse, in vivo, iv
Experimental: Anesthetized mice were co-injected iv with 3 × 10^5 cpm-1×10^6 cpm ^125I/^14C-IRA and 5 × 10^5 cpm of ^99mTc-Alb in 0.2 ml BSA-LR with or without 1 μg of the non-radioactive IRA. Fifteen minutes after iv injection, blood was collected from the right carotid artery, and the whole brain was removed and weighed. Samples were counted for radioactivity. Results were expressed as delta B/S ratios in units of μl/g.

[10] = design: species or system male CD-1 mice; details: mouse, in vivo, iv; remark: listed apart in the source
Experimental: as §4
(2) %Inj/ml=100×cpm/mlserum/meancpm/Inj
The log(%Inj/ml) was plotted against time to calculate the rate of clearance from the serum. To calculate the half-time clearance in minutes, the inverse slope […] of the curve for each IRA was multiplied by 0.301 (log10[2]). The blood and brain cpm data were used for the measurement of brain influx and initial volume of distribution in brain as described in Section 2.7.

[11] = design: species or system male CD-1 mice; details: mouse, in vivo, iv; remark: listed apart in the source
Excerpt: This value is then multiplied by the %Inj/ml of each ^125I/^14C-IRA at each time point. After plotting the %Inj/g at each time point for each IRA, we calculated the area under the curve (AUC) to better identify the amount of brain exposure to each IRA over the entire time course.

Substance	Blood to Brain Unidirectional Influx Rate (Ki) [1]	Percent reaching the brain that was in parenchyma vs. capillaries [2]	%Inj/g by 60 min [3]	Lipid Solubility Partition Coefficient ([4]; pH 7.5)	Log Partition Coefficient (Log P) ([4]; pH 7.5)	Percentage of labeled IRA intact, Serum, 10 min [5]	Percentage of labeled IRA intact, Serum, 60 min [5]	Percent in Parenchyma vs. Capillaries [6]	Percentage of labeled IRA intact, Whole Brain, 10 min [7]	Percentage of labeled IRA intact, Whole Brain, 60 min [7]	Blood to Brain Unidirectional Influx Rate (Ki) [8]	Whole Brain delta brain/serum ratio, Without unlabeled IRA [9]	Half-Time Serum Clearance (t1/2) [10]	Percent of injected dose taken up per gram brain (%Inj/g), 10 min [11]	Percent of injected dose taken up per gram brain (%Inj/g), 60 min [11]	Percent of injected dose taken up per gram brain (%Inj/g), 15 min [11]	Log Partition Coefficient (Log P) ([4]; shake-flask octanol / sodium phosphate buffer pH 7.5 (PB), radiolabelled IRA, gamma or beta counting, mean ± SE, triplicate tubes)	Probable Ki of DA5-CH [8]	Probable Vr of DA5-CH [8]
exenatide: FDA-approved IRA tested in the earlier study (ref 50)	0.4231 µL/g/min	84.2%	0.56 %Inj/g	–	–	–	–	–	–	–	–	–	–	–	–	–	–	–	–
HGEGTFTSDVSSYLEEQAAKEFIAWLVKGGG [Dulaglutide (BAF)]	–	–	–	0.0102 ± 0.0007	-1.991 ± 0.0287	84.67 ± 0.8%	39.1 ± 1.4^a %	61.8%	58.42 ± 0.3%	37.47 ± 4.1%	1.095 ± 0.072 µL/g/min	17.86 ± 0.99 µL/g	6.02 min	0.20 %Inj/g	0.33 %Inj/g	–	–	–	–
HGEGTFTSDVSSYLEGQAAKEFIAWLVKGR [Albiglutide (BAF)]	–	–	–	0.0132 ± 0.0040	-1.916 ± 0.121	53.96 ± 0.4%	20.71 ± 1.3^a %	89.4%	43.35 ± 2.9%	40.9 ± 9.3%	1.379 ± 0.086 µL/g/min	39.3 ± 1.50 µL/g	6.14 min	–	–	0.36 %Inj/g	–	–	–
YXEGTFTSDYSIYLDKQAAXEFVNWLLAGGPSSGAPPPSKRRQRRKKRGY-NH2 [DA5-CH, Experimental balanced GIPR/GLP-1R dual agonist; Peptide 18 of Finan et al. with extension; custom synthesized by AnaSpec]	–	–	–	–	–	83.83 ± 4.9%	49.35 ± 2.5^a %	57.6%	79.7 ± 12.9%	77.61 ± 22.3%	0.242 ± 0.128 µL/g/min	26.25 ± 8.07 µL/g	2.03 min	–	–	–	-2.183 ± 0.0281	0.24 to 2.5 µL/g/min	0 to 11.2 µL/g
